This is an account of results in patent US5763395A, “Stabilized lanthionine bacteriocin compositions” (Ambi Inc., priority 1995, dated 1998).

The structures appear in SMILES notation. Where “and” joins values, the source holds several entries; their conditions need not be identical. Equal entries are not always repeated.

Series [1] can be described thus: Nisin stability in topical germicide formulations under stressed conditions (RPHPLC). As to conditions: for Residual nisin concentration as a percentage of the theoretical concentration: 5 days 40° C., pH 6, additive 1 mM (nisin = control). An excerpt:
i) Analytical reverse phase high pressure liquid chromatography (RPHPLC). The analyte (nisin) in solution is passed through a column of hydrophic beads to which the nisin tends to bind. The solution flowing through the column is then made progressively more hydrophobic by increasing acetonitrile concentration until it causes the nisin to be released from the beads and eluted from the column. The emergence of the nisin from the column is detected by measuring the absorbance of light at 210 nm by the effluent.
In order to expedite the execution of these experiments the formulations were subjected to "stressed" conditions, ie pH 6 and 40° C.; both intended to accelerate any degradation effects taking place. The stability of nisin in the formulations was evaluated by RPHPLC.
Formulations were prepared with nisin at 25 μg/ml and titrated to pH 6. […]

Series [2] in a line: Commonly used antioxidants tested for protection of nisin in formulation. In kind it is physicochemical. As to conditions: methods of Example 2. As for the experimental part: In order to further analyze the nisin degradation associated with one particular surfactant/emulsifier, polysorbate, material was obtained from as many manufacturers as possible. Where possible, multiple production batches were obtained from each manufacturer. Other emulsifiers or surfactants believed to closely resemble polysorbate in their properties as well as dissimilar surfactants were also tested. An oral rinse formulation containing nisin was prepared using each of these compounds and, after incubation, samples were analyzed to evaluate nisin stability.
A number of commonly used antioxidants were tested for their ability to protect nisin in formulation using the methods described in Example 2. None of the compounds tested gave satisfactory protection of nisin.

A short description of series [3]: Glycerol/sorbitol batches and chelating agents screened for effects on nisin stability in oral rinse formulations (RPHPLC). In kind it is physicochemical. As for the experimental part: i) Analytical reverse phase high pressure liquid chromatography (RPHPLC).
Formulations of nisin useful as oral rinses comprising EDTA and the humectant glycerol were also prepared and analyzed by RPHPLC.
Glycerol and sorbitol from a number of sources, and a number of alternative chelators, were screened (Tables 2 and 3).

Setting [4] is: T-MAZ 20 1%, 6 days at 40° C., initial nisin 25 μg/ml, label nisin = no methionine.
Where [5] appears, read: T-MAZ 20 BATCH 348, 2 weeks at 40° C., nisin formulated at 25 μg/ml, label nisin = water control.
The mark [6] stands for this setting: T-MAZ 20 BATCH 357, 2 weeks at 40° C., nisin formulated at 25 μg/ml, label nisin = water control.
Setting [7] is: T-MAZ 20 batch 348, EDTA 1 mM, nisin 25 μg/ml, samples jd6-35-H 49-52.
[8] abbreviates: T-MAZ 20 batch 348, citrate 0.1%, nisin 25 μg/ml, samples jd6-35-H 53-56.
The mark [9] stands for this setting: T-MAZ 20 batch 348, citrate 0.3%, nisin 25 μg/ml, samples jd6-35-H 57-60.
Where [10] appears, read: T-MAZ 20 batch 348, citrate 1.0%, nisin 25 μg/ml, samples jd6-35-H 61-64.
The mark [11] stands for this setting: T-MAZ 20 batch 357, EDTA 1 mM, nisin 25 μg/ml, samples jd6-35-H 33-36.
The mark [12] stands for this setting: T-MAZ 20 batch 357, citrate 0.1%, nisin 25 μg/ml, samples jd6-35-H 37-40.
The mark [13] stands for this setting: T-MAZ 20 batch 357, citrate 0.3%, nisin 25 μg/ml, samples jd6-35-H 41-44.
The mark [14] stands for this setting: T-MAZ 20 batch 357, citrate 1.0%, nisin 25 μg/ml, samples jd6-35-H 45-48.

For `COC(=O)C(N)CCSC` (racemic) [DL-methionine methyl ester], the Residual nisin concentration in series [1] (setting [4]) was 21.9 µg/mL and 20.8 µg/mL.
Regarding `CS(=O)(=O)CCC(N)C(=O)O` (racemic) [DL-methionine sulfone], in series [1] (setting [4]), the Residual nisin concentration stood at 8.6 µg/mL.
On to `C[S+]([O-])CCC(N)C(=O)O` (racemic) [DL-methionine sulfoxide], for which the Residual nisin concentration in series [1] (setting [4]) amounted to 8.6 µg/mL.
Still for that read-out and setting: the same measure for `CSCCC(N)C(=O)O` (racemic) [DL-methionine]: 19.7 µg/mL.
On to `CSCCC(O)C(=O)O` (racemic) [MHA, 2-hydroxy-4-(methylthio)butanoic acid], for which the Residual nisin concentration was found to be 19.8 µg/mL in series [1] (T-MAZ 20 1%, 6 days at 40° C., initial nisin 25 μg/ml, label nisin = no methionine, listed as methionine hydroxy analog (MHA Novus)); 18.1 µg/mL in series [1] (T-MAZ 20 1%, 6 days at 40° C., initial nisin 25 μg/ml, label nisin = no methionine, listed as methionine hydroxy analog (Sigma)); 23.4 µg/mL in series [1] (setting [5]); 22.5 µg/mL in series [1] (setting [6]).
For `O[C@H](CS)[C@H](O)CS` (racemic) [dithiothreitol], in series [2], the “Protection of nisin in formulation by antioxidants, in words” value (“Protection of nisin in formulation” below) is recorded as “aggravated the stability problem”.
As for `N[C@@H](CS)C(=O)O` [CySH, cysteine], the “Residual nisin concentration as a percentage of the theoretical concentration” value in series [1] (setting [7]) turned out to be 51%; in series [1] (setting [8]), 36%; in series [1] (setting [9]), 29%; in series [1] (setting [10]), 33%; in series [1] (setting [11]), 85%; in series [1] (setting [12]), 29%. Besides, the “Residual nisin concentration as a percentage of the theoretical concentration” value in series [1] (setting [13]) is reported as 36%; in series [1] (setting [14]) it was 31%.
In turn, `CSCC[C@H](N)C(=O)O` [L-methionine] returned a Residual nisin concentration in series [1] (setting [4]) of 19.9 µg/mL.
With `NCCCC[C@H](N)C(=O)O` [Lys, lysine], the “Residual nisin concentration as a percentage of the theoretical concentration” value in series [1] (setting [7]) stood at 56%; in series [1] (setting [8]), 45%; in series [1] (setting [9]) it was 47%; in series [1] (setting [10]), 49%; in series [1] (setting [11]) it was 80%; in series [1] (setting [12]), 71%. The “Residual nisin concentration as a percentage of the theoretical concentration” value in series [1] (setting [13]) and in series [1] (setting [14]) was 71% in each case.
With `O=C1O[C@H]([C@@H](O)CO)C(O)=C1O` [ascorbate, ascorbic acid], in series [2], the “Protection of nisin in formulation” value is listed as “aggravated the stability problem”.
Consider `O=C(O)CC(O)(CC(=O)O)C(=O)O` [citrate], for which the “Effect of humectant (glycerol, sorbitol) and chelating agent on nisin stability, in words” value in series [3] is “superior to EDTA”.
Consider `N[C@@H](CS(=O)(=O)O)C(=O)O` [cysteic acid], for which the values for the Residual nisin concentration in series [1] (setting [5]) and in series [1] (setting [6]) were 9.6 µg/mL and 19.5 µg/mL, respectively.
Consider `N[C@@H](CSSC[C@H](N)C(=O)O)C(=O)O` [cystine], for which the values for the Residual nisin concentration in series [1] (setting [5]) and in series [1] (setting [6]) were 9.0 µg/mL and 11.1 µg/mL, respectively.
In the same order, the values of `N[C@@H](CSC[C@H](N)C(=O)O)C(=O)O` [lanthionine] are 10.7 µg/mL and 18.2 µg/mL.
On to `CSCC[C@H](N)C(=O)O` [methionine], for which the results for the Residual nisin concentration in series [1] (setting [5]) and in series [1] (setting [6]) were 23.3 µg/mL and 23.2 µg/mL, respectively. Moreover, the “Residual nisin concentration as a percentage of the theoretical concentration” value in series [1] (setting [7]) came out at 80%; in series [1] (setting [8]), 76%; in series [1] (setting [9]), 73%; in series [1] (setting [10]) it was 73%; in series [1] (setting [11]), 84%; in series [1] (setting [12]), 75%. Also, the “Residual nisin concentration as a percentage of the theoretical concentration” value in series [1] (setting [13]) came out at 76%; in series [1] (setting [14]) it was 73%.
As to `O=S([O-])[O-].[Na+].[Na+]` [sodium sulfite], the “Protection of nisin in formulation” value in series [2] is “aggravated the stability problem”.
Turning to `C1CSCN1` [thizaolidine, thiazolidine], the figures for the Residual nisin concentration in series [1] (setting [5]) and in series [1] (setting [6]) were 14.9 µg/mL and 17.3 µg/mL, respectively. Moreover, the “Stabilization of nisin from degradation by sulfur-containing compounds, in words” value in series [1] (nisin 25 μg/ml, T-MAZ 20, propyleneglycol, 1-propanol, EDTA or citrate, pH 6, 40° C.) is “To a lesser degree, nisin was also stabilized”.
